Assay results taken from patent US20260365662A1, “ISOANDROGRAPHOLIDE ANALOGS AND METHOD FOR TREATMENT USING THE SAME” (Enveda Therapeutics, Inc., priority 2023, published 2026).
Entries after “also recorded” stand apart in the source; their conditions may differ.

How the values were obtained:
female BALB/c mouse [1] = experiment: MC-903 induced atopic dermatitis model, therapeutic mode (Example 14); assay type: in vivo; conditions: twice a day, vs MC-903 vehicle control
Method: Experimental details: Preclinical animal model of atopic dermatitis was developed by MC-903, a vitamin-D analogue. In the current study, the test item Compound 2 was screened in therapeutic mode, to evaluate its efficacy in MC-903 induced AD model. 2 nmol of MC-903 was topically applied to 8-10 weeks old female BALB/c mouse from G2-G8 group at a volume of 50 μl/mouse on back skin on every alternate day for 14 days to induced disease. For the G1 group, (Normal+ethanol control) the same volume of ethanol that was used to solubilize MC-903 was applied. Clobetasol (0.05%, 15 mg/mouse) was applied topically once a day to G3 group animals and Ruxolitinib (1.5%, 20 mg/mouse) was applied topically twice a day to G4 group animals. Compound 2 was administered twice a day to respective treatment groups (G4-G8) for 14 days. On the day of MC-903 administration, test compounds were dosed one hour prior to MC-903 insult. Clinical scores to assess the disease intensity were measured from visual examination for erythema, scaling and back skin thickness using dial caliper. All the scores were carried by blinded observers to treatment groups. Disease severity was assessed by dermatitis erythema & dermatitis scaling.

female BALB/c mouse [2] = experiment: Hapten-induced atopic dermatitis model (Example 13); assay type: in vivo; conditions: for itch / number of scratches in scratch test: 10 minutes, day 13, four hours after last challenge; for immune cell infiltration: histopathology; for immune cell infiltration / epidermal thickness / histopathological changes / histopathology score: back skin; for epidermal thickness / histopathological changes / histopathology score / IL-4 expression: prophylactic; for IL-4 expression / dermatitis severity scores: vs hapten vehicle control; for dermatitis severity scores: twice a day, 14 days
Method: Experimental details: Preclinical animal model of atopic dermatitis was developed by [COMPOUND LEFT OUT] [COMPOUND LEFT OUT], a Hapten. In the current study, the test item Compound 2 was screened to evaluate its efficacy in [COMPOUND LEFT OUT] induced AD model. 0.15% of [COMPOUND LEFT OUT] was topically applied to 7-8 weeks old female BALB/c mouse from G2-G7 group at a volume of 100 μl/mouse on back skin once in 3 days to induced disease. For the G1 group, (Vehicle control) the same volume of acetone and olive oil (3:1) that was used to solubilize [COMPOUND LEFT OUT] was applied. Dexamethasone (5 mg/kg, p.o, qd) was dosed per oral once a day to G3 group animals. Compound 2 was administered twice a day to respective treatment groups (G4-G6) for 14 days. On the day of [COMPOUND LEFT OUT] administration, test compounds were dosed one hour prior to [COMPOUND LEFT OUT] insult. Clinical scores to assess the disease intensity were measured from visual examination for erythema, scaling, excoriation, and back skin thickness using dial caliper. All the scores were carried by blinded observers to treatment groups. Cumulative dermatitis severity scores were calculated by adding up the individual scores of erythema, scaling, thickness & excoriation. On day-13 of the study, four hours after the last [COMPOUND LEFT OUT] challenge, scratching behavior was recorded using a web camera in acrylic observational chambers. The number of scratches were measured for 10 minutes. Later, all the animals were terminally bled under mild anesthesia followed by humane sacrifice and back skin tissue was dissected. Required skin tissue samples were collected in fixative and part of the tissue was flash-frozen in liquid nitrogen and stored at −80 °C. Collected tissue samples were processed and used for biomarker analysis using gene and protein expression analysis by qPCR & ELISA, pharmacokinetic analysis by LC-MS and histopathology studies.

## C[C@@]12CCC(=O)N[C@@](C)(CO)[C@H]1CC[C@@]1(C)O[C@H](C3=CCOC3=O)C[C@@H]21 [Compound 2, (2S,3aR,5aS,6R,10aR,10bS)-6-(hydroxymethyl)-3a,6,10a-trimethyl-2-(2-oxo-2,5-dihydrofuran-3-yl) dodecahydro-8H-benzofuro[5,4-c]azepin-8-one]
Female BALB/c mouse [1]
  dermatitis erythema scores: dose dependent decrease
  dermatitis scaling scores: dose dependent decrease
Female BALB/c mouse [1]; listed as compound 2
  dermatitis erythema scores: significantly reduces
  dermatitis scaling scores: significantly reduces
Female BALB/c mouse [2]
  itch / number of scratches in scratch test: reduced
  immune cell infiltration: significantly reduced
  epidermal thickness: significantly reduced
  histopathological changes / histopathology score: significantly reduced
  IL-4 expression: reduced
  dermatitis severity scores: Significantly Reduces; also recorded: dose dependent decrease
Female BALB/c mouse [2]; listed as compound 2
  itch / number of scratches in scratch test: reduces itch comparably to current first line therapy
  immune cell infiltration: reduces immune cell infiltration
  epidermal thickness: significantly reduces
  histopathological changes / histopathology score: ameliorates; also recorded: significantly reduces
  IL-4 expression: impacts IL-4 expression
  dermatitis severity scores: dose dependent decrease
